pIC50: −log10 of the molar value.
biological target: IRAK4 (Homo sapiens (Human), UniProt Q9NWZ3); assay: In vitro IRAK4 phosphorylation activity assay; format: biochemical; settings: [γ-33P]-ATP, myelin basic protein substrate, 40 minutes at room temperature; categories
Procedure, shortened: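 Radiometric filter-binding assay, no compound–kinase preincubation; 8 mM MOPS pH 7.0, 0.2 mM EDTA, 10 mM Mg acetate, 0.33 mg/mL myelin basic protein substrate, [γ-33P]-ATP. Reaction 40 min at room temperature, stopped with phosphoric acid, scintillation counting; IC50 reported in categories.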

Sequence of IRAK4 (Q9NWZ3 whole entry): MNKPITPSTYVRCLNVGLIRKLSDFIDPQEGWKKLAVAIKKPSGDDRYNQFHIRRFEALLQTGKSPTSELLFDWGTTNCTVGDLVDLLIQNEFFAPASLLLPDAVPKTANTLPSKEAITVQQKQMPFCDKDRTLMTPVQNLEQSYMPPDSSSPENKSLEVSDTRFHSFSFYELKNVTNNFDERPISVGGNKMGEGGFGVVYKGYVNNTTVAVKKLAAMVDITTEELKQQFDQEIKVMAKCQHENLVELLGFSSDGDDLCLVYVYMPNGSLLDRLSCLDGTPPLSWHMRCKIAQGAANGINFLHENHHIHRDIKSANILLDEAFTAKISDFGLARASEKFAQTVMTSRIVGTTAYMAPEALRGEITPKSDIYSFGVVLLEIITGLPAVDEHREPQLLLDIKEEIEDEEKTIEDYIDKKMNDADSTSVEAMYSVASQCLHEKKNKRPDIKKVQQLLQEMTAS

pIC50, > 7.30:
COC[C@@H]1CCCN1C(=O)CCCCc1cn(-c2ccccc2)c(NC(=O)c2cccc(-c3cn[nH]c3)c2)n1 [Example 86, (S)—N-(4-(5-(2-(methoxymethyl)pyrrolidin-1-yl)-5-oxopentyl)-1-phenyl-1H-imidazol-2-yl)-3-(1H-pyrazol-4-yl)benzamide]
COC[C@H]1CCCN1C(=O)CCCCc1cn(-c2ccccc2)c(NC(=O)c2cccc(-c3cn[nH]c3)c2)n1 [Example 87, (R)—N-(4-(5-(2-(methoxymethyl)pyrrolidin-1-yl)-5-oxopentyl)-1-phenyl-1H-imidazol-2-yl)-3-(1H-pyrazol-4-yl)benzamide]
O=C(CCCCc1cn(-c2ccccc2)c(NC(=O)c2cccc(-c3cn[nH]c3)c2)n1)NC1CC1 [Example 88, N-(4-(5-(cyclopropylamino)-5-oxopentyl)-1-phenyl-1H-imidazol-2-yl)-3-(1H-pyrazol-4-yl)benzamide]
O=C(CCCCc1cn(-c2ccccc2)c(NC(=O)c2cccc(-c3cn[nH]c3)c2)n1)NC1CCCCC1 [Example 89, N-(4-(5-(cyclohexylamino)-5-oxopentyl)-1-phenyl-1H-imidazol-2-yl)-3-(1H-pyrazol-4-yl)benzamide]
O=C(CCCCCc1cn(-c2ccccc2)c(NC(=O)c2cccc(-c3cn[nH]c3)c2)n1)Nc1ccccc1 [Example 90, N-(4-(6-oxo-6-(phenylamino)hexyl)-1-phenyl-1H-imidazol-2-yl)-3-(1H-pyrazol-4-yl)benzamide]
COC(=O)CCCCCc1cn(-c2ccccc2)c(NC(=O)c2cccc(-c3cn[nH]c3)c2)n1 [Example 91, methyl 6-(2-(3-(1H-pyrazol-4-yl)benzamido)-1-phenyl-1H-imidazol-4-yl)hexanoate]
O=C(O)CCCCCc1cn(-c2ccccc2)c(NC(=O)c2cccc(-c3cn[nH]c3)c2)n1 [Example 92, 6-(2-(3-(1H-pyrazol-4-yl)benzamido)-1-phenyl-1H-imidazol-4-yl)hexanoic acid]
O=C(Nc1nc(CCCCCC(=O)N2CCCCC2)cn1-c1ccccc1)c1cccc(-c2cn[nH]c2)c1 [Example 93, N-(4-(6-oxo-6-(piperidin-1-yl)hexyl)-1-phenyl-1H-imidazol-2-yl)-3-(1H-pyrazol-4-yl)benzamide]
CNC(=O)CCCCCc1cn(-c2ccccc2)c(NC(=O)c2cccc(-c3cn[nH]c3)c2)n1 [Example 94, N-(4-(6-(methylamino)-6-oxohexyl)-1-phenyl-1H-imidazol-2-yl)-3-(1H-pyrazol-4-yl)benzamide]
C[C@H]1CCCCN1C(=O)CCCCCc1cn(-c2ccccc2)c(NC(=O)c2cccc(-c3cn[nH]c3)c2)n1 [Example 95, (S)—N-(4-(6-(2-methylpiperidin-1-yl)-6-oxohexyl)-1-phenyl-1H-imidazol-2-yl)-3-(1H-pyrazol-4-yl)benzamide]
C[C@@H]1CCCCN1C(=O)CCCCCc1cn(-c2ccccc2)c(NC(=O)c2cccc(-c3cn[nH]c3)c2)n1 [Example 96, (R)—N-(4-(6-(2-methylpiperidin-1-yl)-6-oxohexyl)-1-phenyl-1H-imidazol-2-yl)-3-(1H-pyrazol-4-yl)benzamide]
C[C@@H]1CCC[C@H](C)N1C(=O)CCCCCc1cn(-c2ccccc2)c(NC(=O)c2cccc(-c3cn[nH]c3)c2)n1 [Example 97, N-(4-(6-((2R,6S)-2,6-dimethylpiperidin-1-yl)-6-oxohexyl)-1-phenyl-1H-imidazol-2-yl)-3-(1H-pyrazol-4-yl)benzamide]
COC[C@@H]1CCCN1NC(=O)CCCCCc1cn(-c2ccccc2)c(NC(=O)c2cccc(-c3cn[nH]c3)c2)n1 [Example 98, (S)—N-(4-(6-((2-(methoxymethyl)pyrrolidin-1-yl)amino)-6-oxohexyl)-1-phenyl-1H-imidazol-2-yl)-3-(1H-pyrazol-4-yl)benzamide]

From patent publication US12534452B2, “N-(1H-imidazol-2-yl)benzamide compound and pharmaceutical composition comprising the same as active ingredient” (KAINOS MEDICINE, INC., priority 2019, dated 2026)
